Data published in patent publication US5652247A, “Carbostyril derivatives” (Otsuka Pharmaceutical Co., Ltd, priority 1989, dated 1997).

Target: T1, V1 receptor (Rattus norvegicus, UniProt P30560)
T1 construct: rat liver plasma membrane preparations; from tissue; host or cells: rat liver plasma membranes
Assay: V1 receptor binding assay
Settings: [H]^3-Arg-vasopressin 2×10^-10 M, rat liver plasma membrane, 37° C., 10 minutes, pH 8.0

T1 sequence (P30560 whole entry): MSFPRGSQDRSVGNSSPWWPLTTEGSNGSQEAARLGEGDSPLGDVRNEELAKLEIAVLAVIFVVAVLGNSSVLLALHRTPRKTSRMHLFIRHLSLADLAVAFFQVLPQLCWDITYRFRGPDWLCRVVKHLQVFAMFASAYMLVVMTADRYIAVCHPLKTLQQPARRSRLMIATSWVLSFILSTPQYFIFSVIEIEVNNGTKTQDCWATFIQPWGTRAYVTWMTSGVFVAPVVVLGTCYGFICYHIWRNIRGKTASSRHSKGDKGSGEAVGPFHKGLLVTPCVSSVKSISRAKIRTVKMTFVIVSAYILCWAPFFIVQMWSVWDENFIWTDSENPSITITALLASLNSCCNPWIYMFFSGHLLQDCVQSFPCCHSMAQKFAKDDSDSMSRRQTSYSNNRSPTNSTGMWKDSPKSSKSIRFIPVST

SMILES	IC50 [nM]
C#CCc1ccc(C(=O)N2CCC(N3C(=O)CCc4ccccc43)CC2)cc1 [Example 96, 1-[1-(4-Propargylbenzoyl)-4-piperidinyl]-3,4-dihydrocarbostyril]	600
CN(C)c1ccc(S(=O)(=O)CCCCCOc2ccc(C(=O)N3CCC(N4C(=O)CCc5ccccc54)CC3)cc2)cc1 [Example 290, 1-{1-(4-[5-(4-Dimethylaminophenylsulfonyl)pentyloxy]benzoyl)-4-piperidinyl}-3,4-dihydrocarbostyril]	300
